Literature values, collected in patent US20040247633A1, “Novel dermatological composition” (EBERSYTES, LLC, priority 2003, published 2004).

Conditions: metal chelate

Affinity Constant: 10^10-10^12
SMILES: CC(O)C(=O)[O-].CC(O)C(=O)[O-].[Cu+2] (stereo not shown) [Copper lacate]
